Measurements from publication PMC5104426, “Screening a Phage Display Library for Two Novel OmpU-Binding Peptides with Adhesion Antagonistic Activity against Vibrio mimicus” (PLoS ONE, 2016).
“And” between values parts separate entries of the source, which are not always exact repeats. Equal values may be shown once.

Key:
[1] = test system: rOmpU fusion protein adhesion to EPC cells; assay: Fluorescence-based adhesion assay: rOmpU protein adhesion to EPC cells; assay type: cell-based, Vibrio mimicus; conditions: 500 μg/mL peptide mixed with equal volume of 500 μg/mL rOmpU, 1 h 28°C, then 1 h on fixed EPC cells; anti-OmpU/FITC immunofluorescence; triplicate
Experimental: Synthetic OmpU-binding peptides were measure for their ability to antagonize OmpU protein adhesion to EPC cells by fluorescence-based adhesion assay. Briefly, EPC cells (1 × 10^6 cells/mL) were seeded in 24-well cell plate containing coverslip (Corning, NY, USA) and cultured to 80% confluence. The cells were gently washed 3 times with PBS and fixed with 4% paraformaldehyde at room temperature for 15 min. After 3 washes with PBS, cells were permeabilized with 0.5% Triton X-100 (500 μL/well) for 15 min. The cells were then washed 3 times with PBS and blocked with 2% BSA for 30 min. Subsequently, 500 μg/mL of each OmpU-binding peptide or irrelevant control peptide (used as negative control) solution were respectively mixed with an equal volume of 500 μg/mL rOmpU fusion protein, and the mixture was incubated for 1 h at 28°C and added to each well. The plates were incubated for 1 h at 28°C. After 3 washes, purified rabbit anti-OmpU antibody (prepared in our previous studies) at a dilution of 1:200 in PBS was added to each well and incubated for 1 h at 28°C, followed by 3 washes in PBS. A 1:100 dilution of FITC (fluorescein isothiocyanate)-labeled goat anti-rabbit IgG (Jackson ImmunoResearch Laboratories, Inc., USA) was added to each well and incubated in the dark for 1 h. After 3 washes in PBS, 4,6-Diamidino-2-phenylindole dihydrochloride (DAPI; Ziyi Reagent Co., Shanghai, China) was used to stain the nucleus, and the coverslips were observed under a fluorescence microscope. Each experiment was performed in triplicate, each sample being tested in three wells.

[2] = test system: V. mimicus 04–14 isolate adhesion to EPC cells; assay: Peptide adhesion inhibition test: V. mimicus adhesion to EPC cells; assay type: cell-based, Vibrio mimicus; conditions: 500 μg/mL peptide mixed with equal volume of V. mimicus 04–14 (2 × 10^7 CFU/mL), 1 h 28°C, then 1 h on EPC cells, crystal violet, 30 cells counted, mean ± SD, triplicate
Experimental: When EPC cells grown in 24-well plate containing coverslips formed a confluent monolayer, the medium was changed to RPMI-1640 medium without serum and antibiotics for 2 h. Subsequently, 500 μg/mL of each OmpU-binding peptide or unrelated control peptide solution were respectively mixed with an equal volume of V. mimicus isolate 04–14 suspension (2 × 10^7 CFU/mL) and incubated for 1 h at 28°C. The mixture was added to each well, and then the plates were incubated for 1 h at 28°C. After 3 times washes, EPC cells were fixed with cooled methanol for 10 min, stained with crystal violet and examined under a light microscope at a magnification of ×1,000. Thirty cells were randomly selected to count the number of adhering bacterial per slide. Each experiment was performed in triplicate, with each sample being repeated in 3 cell wells.

[3] = test system: grass carps; assay: Acute toxicity to grass carps; assay type: in vivo, Ctenopharyngodon idella; conditions: 100 mg/kg i.p., six fish per group; for survival in the 7-day study period: 7 days
Experimental: (§1) Healthy grass carps weighting 50–52 g were purchased from a commercial fish farm in Anhui province of China, and then were maintained in a flow-through water system at a temperature of 25 ± 1°C and fed commercial pellets on a daily basis. After 14 days when grass carps were confirmed to be healthy, the water temperature was increased to 28 ± 1°C slowly, and the experiment began.
For acute toxicity detection, synthetic P1, P2 and unrelated control peptide was dissolved in sterile deionized water, respectively, and given to grass carps by intraperitoneal (i.p.) injection at a dose of 100 mg/kg, six fish per group. The number of fish surviving in each group was monitored for up to a period of 7 days after injection. At the end of the experiments, all surviving fish were euthanized in a solution of 200 mg/L of MS-222 followed by a blow to the head.

[4] = test system: V. mimicus 04–14 isolate; assay: Protective effects on grass carps challenged with V. mimicus; assay type: in vivo, Vibrio mimicus; conditions: for Mortality rate / Survival rate: n = 10, 7 days; for No. of dead fish post challenge, 2d: n = 10, day 2; for No. of dead fish post challenge, 3d: n = 10, day 3; for No. of dead fish post challenge, 4d: n = 10, day 4; for No. of dead fish post challenge, 5d: n = 10, day 5; for No. of dead fish post challenge, 6d: n = 10, day 6; for No. of dead fish post challenge, 7d: n = 10, day 7; for No. of dead fish: n = 10, total over 7 days; for No. of dead fish post challenge, 1d: n = 10, day 1
Experimental: as §1
The experimental grass carps were randomly divided into 9 groups (named A-I group, n = 10 in each group). Groups A-C were injected intraperitoneally with P1 at a dose of 10 mg/kg/d, 20 mg/kg/d and 30 mg/kg/d, respectively; Groups D-F were given the same dosages of P2, respectively; Group G was given with 30 mg/kg/d of unrelated control peptide. After 3 days of continuous peptides injection, each fish in groups A-G was challenged intraperitoneally with 200 μL PBS containing 6 × 10^6 cells of V.mimicus 04–14 isolate (equal to the minimal lethal dose determined by preliminary test), respectively. Group H (infection control group) was only inoculated with 04–14 isolate at the minimal lethal dose; Group I (negative control group) was only inoculated with 0.65% sterile saline. Survival of the fish was monitored every 12 h for 7 days post-challenge. At the end of the 7 day observation period, all surviving fish were euthanized in a solution of 200 mg/L of MS-222 followed by a blow to the head.
The survival experiment was performed in accordance with the practices reported in recent studies on antibacterial efficacy of peptides in vivo, protective efficacy of vaccine and bacterial virulence. Death was used as an endpoint in these studies (with no indication of use of humane euthanasia). In animal toxicity and efficacy assays of the adhesion antagonistic peptides, we used death as the endpoint as early, reliable and unbiased biomarkers that can be used as indicators of disease severity are lacking. There is difficulty in reliably differentiating fish that will die from those which will recover, despite showing clinical signs precluding use of humane euthanasia. In addition, interpretation of clinical signs can itself be subjective in the absence of quantifiable indicators of disease severity. For these reasons, the ethical committee of Anhui Agricultural University has assessed the possibility of deaths in the animal toxicity and efficacy assays and also allowed probably unavoidable animal deaths.

[5] = 10 mg/kg/d i.p. for 3 days before challenge
[6] = 10 mg/kg/d i.p. for 3 days before i.p. challenge with 6 × 10^6 cells
[7] = 20 mg/kg/d i.p. for 3 days before challenge
[8] = 30 mg/kg/d i.p. for 3 days before challenge

Sequence: TWTCSDVICTAR [P1, adhesion antagonistic peptide]
- green fluorescence on the surface of EPC cells (surface-retained rOmpU) [1]: little or no green fluorescence
- average number of adhesion around each cell [2]: 5.1 ± 0.7 and 5.1 ± 0.6
- immediate adverse events (enervation or feed intake reduction) [3]: no immediate adverse events
- survival in the 7-day study period [3]: all the treated fish survived
- Mortality rate [4, 5]: 90%
- Survival rate [4, 5]: 10%
- No. of dead fish post challenge, 2d [4, 5]: 5
- No. of dead fish post challenge, 3d [4, 5]: 2
- No. of dead fish post challenge, 4d [4, 5]: 2
- No. of dead fish post challenge, 5d [4, 5]: 0
- No. of dead fish post challenge, 6d [4, 5]: 0
- No. of dead fish post challenge, 7d [4, 5]: 0
- No. of dead fish [4, 5]: 9
- No. of dead fish post challenge, 1d [4, 6]: 0
- Mortality rate [4, 7]: 80%
- Survival rate [4, 7]: 20%
- No. of dead fish post challenge, 1d [4, 7]: 0
- No. of dead fish post challenge, 2d [4, 7]: 4
- No. of dead fish post challenge, 3d [4, 7]: 2
- No. of dead fish post challenge, 4d [4, 7]: 2
- No. of dead fish post challenge, 5d [4, 7]: 0
- No. of dead fish post challenge, 6d [4, 7]: 0
- No. of dead fish post challenge, 7d [4, 7]: 0
- No. of dead fish [4, 7]: 8
- Mortality rate [4, 8]: 60%
- Survival rate [4, 8]: 40%
- No. of dead fish post challenge, 1d [4, 8]: 0
- No. of dead fish post challenge, 2d [4, 8]: 2
- No. of dead fish post challenge, 3d [4, 8]: 3
- No. of dead fish post challenge, 4d [4, 8]: 1
- No. of dead fish post challenge, 5d [4, 8]: 0
- No. of dead fish post challenge, 6d [4, 8]: 0
- No. of dead fish post challenge, 7d [4, 8]: 0
- No. of dead fish [4, 8]: 6

Sequence: SCTSPHCFMWLP [P2, adhesion antagonistic peptide]
- green fluorescence on the surface of EPC cells (surface-retained rOmpU) [1]: little or no green fluorescence
- average number of adhesion around each cell [2]: 3.4 ± 0.8
- immediate adverse events (enervation or feed intake reduction) [3]: no immediate adverse events
- survival in the 7-day study period [3]: all the treated fish survived
- Mortality rate [4, 5]: 80%
- Survival rate [4, 5]: 20%
- No. of dead fish post challenge, 2d [4, 5]: 4
- No. of dead fish post challenge, 3d [4, 5]: 3
- No. of dead fish post challenge, 4d [4, 5]: 1
- No. of dead fish post challenge, 5d [4, 5]: 0
- No. of dead fish post challenge, 6d [4, 5]: 0
- No. of dead fish post challenge, 7d [4, 5]: 0
- No. of dead fish [4, 5]: 8
- No. of dead fish post challenge, 1d [4, 6]: 0
- Mortality rate [4, 7]: 60%
- Survival rate [4, 7]: 40%
- No. of dead fish post challenge, 1d [4, 7]: 0
- No. of dead fish post challenge, 2d [4, 7]: 2
- No. of dead fish post challenge, 3d [4, 7]: 3
- No. of dead fish post challenge, 4d [4, 7]: 1
- No. of dead fish post challenge, 5d [4, 7]: 0
- No. of dead fish post challenge, 6d [4, 7]: 0
- No. of dead fish post challenge, 7d [4, 7]: 0
- No. of dead fish [4, 7]: 6
- Mortality rate [4, 8]: 40%
- Survival rate [4, 8]: 60%
- No. of dead fish post challenge, 1d [4, 8]: 0
- No. of dead fish post challenge, 2d [4, 8]: 2
- No. of dead fish post challenge, 3d [4, 8]: 2
- No. of dead fish post challenge, 4d [4, 8]: 0
- No. of dead fish post challenge, 5d [4, 8]: 0
- No. of dead fish post challenge, 6d [4, 8]: 0
- No. of dead fish post challenge, 7d [4, 8]: 0
- No. of dead fish [4, 8]: 4
